{
  "source": "patent US20240239774A1",
  "about": "“SOLUBLE ADENYLYL CYCLASE (SAC) INHIBITORS AND USES THEREOF” (Cornell University, priority 2021, published 2024)",
  "key": {"fertility of male mice": {"system": "fertility of male mice", "experiment": "Timed mating of inhibitor-injected male mice", "assay_type": "in vivo, mouse", "conditions": "for Contraceptive efficacy: compared to vehicle-injected control", "protocol": "Single-housed naïve (i.e., uninjected and virgin) male and female C57B1/6 mice were acclimatized to reverse light cycle (dark: 11 am to 11 pm) for at least two weeks. […] Pregnancy and litter size were assessed in two ways. Either females were sacrificed 7 days following mating and implanted embryos counted, or females were permitted to go to term (21 days) and pups counted. A subset of the pups (both male and female) born from breakthrough pregnancies were permitted to mature and their fertility assessed in standard matings."}, "mouse sperm": {"system": "mouse sperm", "experiment": "Flagellar beat analysis of single sperm", "assay_type": "cell-based", "conditions": "stimulation with 25 mM NaHCO3; 5 μM Example 1 or 10 nM Example 133", "protocol": "An inverted dark-field video microscope (IX73; Olympus) with a 10× objective (mouse sperm) and a 20× objective (human sperm) (UPLSAPO, NA 0.8; Olympus) was combined with a high-speed camera (ORCA Fusion; Hamamatsu). Dark-field videos were recorded with a frame rate of 200 Hz. The temperature of the heated stage was set to 37° C. (stage top incubator WSKMX; TOKAI HIT).\nAn inverted dark-field video microscope (IX73; Olympus) with a 10×objective (mouse sperm) or a 20×objective (human sperm) (UPLSAPO, NA 0.8; Olympus) was combined with a high-speed camera (ORCA Fusion; Hamamatsu). Dark-field videos were recorded with a frame rate of 200 Hz. The temperature of the heated stage was set to 37° C. (stage top incubator WSKMX; TOKAI HIT). The images were preprocessed with the imageJ plugin SpermQ Preparator (Gaussian blur with sigma 0.5 px; Subtract background method with radius 5 px) and analyzed using the ImageJ plugin SpermQ [Reference 84]. The beat frequency was determined from the highest peak in the frequency spectrum of the curvature time course, obtained by Fast Fourier Transform."}, "human sperm": {"system": "human sperm", "experiment": "Acrosome reaction assay", "assay_type": "cell-based", "conditions": "5 μM Example 1 or 10 nM Example 133; 10 μM progesterone", "protocol": "For analysis of acrosomal exocytosis, 100 μl of 1×10^7 sperm/ml were capacitated for 90 minutes in TYH buffer supplemented with 3 mg/ml BSA and 25 mM NaHCO3 (mouse sperm) or HTF buffer supplemented with […] HSA and 25 mM NaHCO3 (human sperm). sAC inhibitors were added with capacitating buffer; 0.1% DMSO was used as vehicle control. Acrosome reaction was induced by incubating mouse sperm with 50 mouse solubilized zonae pellucidae for 15 minutes at 37° C., or human sperm with 10 μM progesterone for 30 minutes at 37° C. The sperm suspensions were sedimented by centrifugation at 2,000×g for 5 minutes and the sedimented sperm were resuspended in 100 μl PBS buffer. Samples were air-dried on microscope slides and fixed for 30 minutes in 100% ethanol at room temperature (RT). For acrosome staining, mouse and human sperm were incubated for 30 minutes in the dark with 5 μg/ml PNA-FITC or 5 μg/ml PSA-FITC, respectively, and counterstained with 2 μg/ml DAPI. After curing, slides were analyzed using a Zeiss LSM 880 Laser Scanning Confocal Microscope; images were captured with two photomultiplier and one Gallium Arsenide Phosphide detector using ZEN Imaging software. For each condition, at least 600 cells were analyzed using ImageJ 1.52."}, "epididymal mouse sperm": {"system": "epididymal mouse sperm", "experiment": "Ex vivo cAMP in epididymal sperm from injected mice", "conditions": "50 mg/kg i.p.; for bicarbonate-induced cAMP increase ex vivo: sperm isolated one hour after injection, minimally diluted", "protocol": "Sperm (50 μl) isolated at indicated time points (between 1 hour and 24 hours post-injection) were incubated in […] (1:20 dilution) or 450 μl (1:200 dilution) non-capacitating or capacitating TYH media for 12 minutes. Intracellular cAMP levels were quantified using the Direct cAMP ELISA (Enzo) as above."}, "[1]": {"system": "mouse oocytes with capacitated wild-type sperm", "experiment": "In vitro fertilization", "assay_type": "cell-based", "protocol": "In vitro fertilization: On the day of preparation, sperm were capacitated for 90 min in HTF medium (EmbryoMax Human Tubal Fluid; Merck Millipore). 100 μl drops of HTF were covered with medium/oil mixture (HTF mixed 1:1 with mineral oil), and 10^5 sperm were added to each drop. Cumulus-enclosed oocytes were prepared from the oviducts of superovulated females and added to the drops. […] The number of 2-cell stages was evaluated after 24 hr."}, "[2]": {"system": "wild type (WT) C57B1/6 mouse eyes", "experiment": "Intraocular pressure (IOP) study", "assay_type": "in vivo", "conditions": "one hour post ip injection", "protocol": "A mouse was anesthetized via intraperitoneal (ip) injection of room temperature ketamine/xylazine. Anesthesia was assessed by pinching back. The anesthetized mouse was placed on a platform. The anterior chamber was cannulated using a 33-gauge stainless steel needle. The needle was inserted anterior to the limbus and through the cornea. The cannula was connected to a pressure transducer using teflon tubing and was calibrated to a water height equivalent of 0 mm Hg. The transducer signal was amplified, converted to a digital signal, and the voltage was recorded using LabScribe3 software. IOP was calculated by comparing the change in voltage to a standard calibration curve generated at the end of each experiment using the water height column."}, "[3]": {"system": "wild type C57B1/6 male mice", "experiment": "Imiquimod-induced type 17 skin inflammation, topical treatment", "assay_type": "in vivo, mouse", "protocol": "Wild type C57B1/6 male mice 8-10 week old were purchased from Jackson labs. A 7 mm diameter circle was shaved and treated with Nair on the flank. Baseline ear thickness was measured. For 5 days, mice received daily treatment of 30 mg of 5% imiquimod cream (Taro) to each ear and to the 7 mm area on the flank. Ear thickness was recorded on days 3 and 5 to ensure peak inflammation had occurred. Mice were then randomized into three cohorts: vehicle, LRE1, and Clobetasol. […] Treatment with imiquimod was continued during this period as above. Ear thickness was recorded every day before the first dose of drug. On day 11, all mice were euthanized. A 7 mm punch biopsy was collected from the flank and both ears were removed. Skin was stored in RNAlater (Sigma) for qPCR or 10% formalin for immunohistochemistry.\nFor tissue, RNA was isolated according to specifications of the RNA easy plus universal mini kit (Qiagen). Tissue was homogenized using stainless steel beads in a bead beater. For frozen cell pellets, RNA was isolated according to specifications of the RNA easy plus mini kit (Qiagen). Samples were homogenized using Qiashredder columns (Qiagen). RNA quality control was performed using a nanodrop spectrophotometer. cDNA was made using the high-capacity rna-to-cdna kit (thermo fischer). The applied biosystems power SYBR green PCR master mix was used for qPCR. 40 cycles with annealing temperatures of 60 degrees celsius and a melting curve were performed using the QuantStudio 6 real-time PCR instrument (thermo fischer). Delta delta CT analysis was performed to determine relative transcription amongst samples normalized to GAPDH."}, "[4]": {"conditions": "50 mg/kg i.p. to males, mating time 5 hours"}, "[5]": {"conditions": "50 mg/kg i.p. to males, mating time 8 hours"}, "[6]": {"conditions": "50 mg/kg i.p. to males, mating time 11 hours"}, "[7]": {"conditions": "50 mg/kg i.p., mating 4 days, 1 week post-injection (recovery of fertility)"}},
  "note": "Several values for one entry are separate records, joined by “and”; a condition that tells them apart may be missing. Identical values can stand only once.",
  "data": [
    {"smiles": "Nc1nc(Cl)cc(-c2nn(C(F)F)cc2Cc2ccccc2OCCN2CCOC[C@H]2CO)n1", "note": "[Example 133]", "values": [
      {"measurement": "mouse behavior, movements and mating behaviors", "setting": "fertility of male mice; 50 mg/kg i.p.", "result": "did not adversely affect mouse behavior"},
      {"measurement": "Pregnancy pairings (pregnancies per total pairings)", "setting": "fertility of male mice; [4]", "result": "(3/92)"},
      {"measurement": "Pregnancy rate", "setting": "fertility of male mice; [4]", "result": "3.3% and 3.2%"},
      {"measurement": "Contraceptive efficacy", "setting": "fertility of male mice; [4]", "result": 90, "unit": "%"},
      {"measurement": "Pregnancy pairings (pregnancies per total pairings)", "setting": "fertility of male mice; [5]", "result": "(3/40)"},
      {"measurement": "Pregnancy rate", "setting": "fertility of male mice; [5]", "result": "7.2% and 7.5%"},
      {"measurement": "Contraceptive efficacy", "setting": "fertility of male mice; [5]", "result": 82, "unit": "%"},
      {"measurement": "Pregnancy pairings (pregnancies per total pairings)", "setting": "fertility of male mice; [6]", "result": "(7/45)"},
      {"measurement": "Pregnancy rate", "setting": "fertility of male mice; [6]", "result": "16% and 15.6%"},
      {"measurement": "Contraceptive efficacy", "setting": "fertility of male mice; [6]", "result": 65, "unit": "%"},
      {"measurement": "Pregnancy pairings (pregnancies per total pairings)", "setting": "fertility of male mice; [7]", "result": "(13/14)"},
      {"measurement": "Pregnancy rate", "setting": "fertility of male mice; [7]", "result": "93% and 92.9%"},
      {"measurement": "bicarbonate-induced change in flagellar beating / beat frequency", "setting": "mouse sperm", "result": "more potent than Example 1"},
      {"measurement": "blocking acrosome reaction induced by progesterone", "setting": "human sperm", "result": "more potent than Example 1"},
      {"measurement": "cAMP responsiveness ex vivo following dilution", "setting": "epididymal mouse sperm; 9 hours post-injection, diluted 1:200", "result": "partially recovered"},
      {"measurement": "cAMP response ex vivo following dilution", "setting": "epididymal mouse sperm; sperm isolated 1 hour or 4.5 hours post-injection, diluted 1:200", "result": "remained inhibited"},
      {"measurement": "bicarbonate-induced cAMP increase ex vivo", "setting": "epididymal mouse sperm", "result": "absent"}
    ]},
    {"smiles": "Cc1c(Cc2ccccc2)c(-c2cc(Cl)nc(N)n2)nn1C", "note": "[Example 1, 4-(4-benzyl-1,5-dimethyl-pyrazol-3-yl)-6-chloro-pyrimidin-2-amine]", "values": [
      {"measurement": "Pregnancy pairings (pregnancies per total pairings)", "setting": "fertility of male mice; [5]", "result": "(14/45)"},
      {"measurement": "Pregnancy rate", "setting": "fertility of male mice; [5]", "result": 31.1, "unit": "%"},
      {"measurement": "Contraceptive efficacy", "setting": "fertility of male mice; [5]", "result": 25, "unit": "%"},
      {"measurement": "amount of 2-cell stage oocytes", "setting": "[1]; 5 μM, control 30%", "result": 10, "unit": "%"},
      {"measurement": "fertilization in vitro", "setting": "[1]; 50 μM", "result": "fully blocked fertilization"},
      {"measurement": "bicarbonate-induced change in flagellar beating / beat frequency", "setting": "mouse sperm", "result": "prevents bicarbonate-induced changes in flagellar beating pattern"},
      {"measurement": "bicarbonate-responsive cAMP synthesis ex vivo", "setting": "epididymal mouse sperm; sperm diluted 1:200 ex vivo", "result": "restored"},
      {"measurement": "bicarbonate-induced cAMP increase ex vivo", "setting": "epididymal mouse sperm", "result": "absent"},
      {"measurement": "intraocular pressure (IOP)", "setting": "[2]", "result": "dose dependently elevates IOP"},
      {"measurement": "inflammation in the ears measured by ear calipers", "setting": "[3]; applied at the same time as imiquimod, N=5", "result": "reduce the inflammation"},
      {"measurement": "skin inflammation (ear thickness)", "setting": "[3]; imiquimod 6 days, then continued imiquimod plus topical twice a day: LRE1 3%, Example 1 […], Clobetasol 0.05%", "result": "significant reduction in skin inflammation"},
      {"measurement": "reduction in inflammation", "setting": "[3]; imiquimod for one week, then imiquimod plus compound, over 4 days, N=5", "result": 50, "unit": "%"}
    ]}
  ]
}
